Assay results published in article PMC10118286 (Journal of medicinal chemistry, 2021).

What was measured:
[1] = tested on: MDA-MB-231 cells; conditions: read-out: Anti-proliferative active (IC50, μM) MDA-MB-231; cell viability assay for 24 h
[2] = tested on: MDA-MB-468 cells; conditions: read-out: Anti-proliferative active (IC50, μM) MDA-MB-468; cell viability assay for 24 h
[3] = biological target: T1, CK2 (Homo sapiens, UniProt P68400); experiment: biochemical; conditions: read-out: Kinase inhibitory activity (1 μM, %) CK2
[4] = biological target: T2, BRD4 (Homo sapiens, UniProt O60885); experiment: BRD4 inhibition assay; type: binding
[5] = biological target: T1, CK2; conditions: 10 μM
[6] = Pharmacokinetic study in SD rats; type: in vivo, Sprague–Dawley (SD) rats
[7] = tested on: MDA-MB-231 xenograft; experiment: MDA-MB-231 xenograft tumor model; type: in vivo, nude mice (BALB/c)
[8] = tested on: MCF-10A cells; experiment: Cell viability; type: cell-based
[9] = biological target: T2, BRD4; experiment: CETSA in MDA-MB-231 cells, BRD4; type: cell-based; conditions: 5 μM, 6 h
[10] = biological target: CK2α (Homo sapiens, UniProt P68400); experiment: CETSA in MDA-MB-231 cells, CK2α; type: cell-based; conditions: 5 μM, 6 h
[11] = tested on: p-BRD4^S492; experiment: Western blot of p-BRD4 S492, MDA-MB-231 cells; type: cell-based; conditions: 0, 2.5, 5, and 10 μM for 24 h
[12] = tested on: p-BRD4^S492; experiment: Western blot of p-BRD4 S492, MDA-MB-468 cells; type: cell-based; conditions: 0, 2.5, 5, and 10 μM for 24 h
[13] = tested on: MDA-MB-231 cells; experiment: Colony formation assay, MDA-MB-231; type: cell-based; conditions: 0, 2.5, 5, and 10 μM for 7 days
[14] = tested on: MDA-MB-468 cells; experiment: Colony formation assay, MDA-MB-468; type: cell-based; conditions: 0, 2.5, 5, and 10 μM for 7 days
[15] = tested on: MDA-MB-231 cells; experiment: Annexin-V/PI flow cytometry apoptosis, MDA-MB-231; type: cell-based; conditions: 24 h
[16] = tested on: MDA-MB-468 cells; experiment: Annexin-V/PI flow cytometry apoptosis, MDA-MB-468; type: cell-based; conditions: 24 h
[17] = tested on: MDA-MB-231 cells; experiment: Autophagy assay; type: cell-based; conditions: 5 μM
[18] = tested on: MDA-MB-468 cells; experiment: Autophagy assay; type: cell-based; conditions: 5 μM
[19] = tested on: CK1; conditions: read-out: CK1 inhibitory profile (IC50); triplicate, mean ± SD
[20] = tested on: MDA-MB-468 xenograft
[21] = tested on: MDA-MB-231R cells; experiment: Antiproliferative activity toward compound 1-resistant MDA-MB-231R cells; conditions: p < 0.01
[22] = 25 and 50 mg/kg, intragastric, 19 days
[23] = intragastric, once a day for 19 days

T1 sequence (P68400 whole entry): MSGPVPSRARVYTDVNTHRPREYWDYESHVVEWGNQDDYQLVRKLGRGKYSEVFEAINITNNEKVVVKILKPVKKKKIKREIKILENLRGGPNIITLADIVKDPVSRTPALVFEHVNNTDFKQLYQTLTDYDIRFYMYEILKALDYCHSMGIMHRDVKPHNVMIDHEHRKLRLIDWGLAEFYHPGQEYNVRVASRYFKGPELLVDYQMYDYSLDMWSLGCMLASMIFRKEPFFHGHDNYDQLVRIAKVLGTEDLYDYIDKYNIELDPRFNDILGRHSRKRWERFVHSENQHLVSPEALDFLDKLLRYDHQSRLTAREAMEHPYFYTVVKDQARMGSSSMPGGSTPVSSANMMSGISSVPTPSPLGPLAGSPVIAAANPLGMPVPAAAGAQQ
Chain of CK2α (P68400 whole entry): as above

Question: Which results are given for “N-(3-Chloro-4-(4-methylpiperazin-1-yl)phenyl)-2-(4-(6-chloro-4-oxo-1,4-dihydroquinazolin-2-yl)phenoxy)acetamide [Compound 44l]”?
Answer: IC50 [1]: 14.4 ± 0.58 µM; IC50 [2]: 15.3 ± 0.72 µM

Question: For `COc1cc(OC)c2c(=O)[nH]c(-c3cc(C)c(OCC(=O)Nc4nc5ccccc5[nH]4)c(C)c3)nc2c1` [Compound 42j, N-(1H-Benzo[d]imidazol-2-yl)-2-(4-(5,7-dimethoxy-4-oxo-1,4-dihydroquinazolin-2-yl)-2,6-dimethylphenoxy)acetamide], which inhibition at 1 µM [3] is on record?
Answer: 25.6 ± 6.57%

Question: Which results are given for “N-(3-Chloro-4-(4-methylpiperazin-1-yl)phenyl)-2-(4-(7-chloro-4-oxo-1,4-dihydroquinazolin-2-yl)phenoxy)acetamide [Compound 44m]”?
Answer: IC50 [1]: 5.21 ± 0.82 µM; IC50 [2]: 6.23 ± 0.55 µM

Question: For “N-(3-Chloro-4-(4-methylpiperazin-1-yl)phenyl)-2-(4-(6-methoxy-4-oxo-1,4-dihydroquinazolin-2-yl)phenoxy)acetamide [Compound 44k]”, which IC50 [1] is on record?
Answer: 14.6 ± 0.77 µM

Question: What about the IC50 [2] of the same compound?
Answer: 16.4 ± 0.85 µM

Question: With “2-(4-(5,7-Dimethoxy-4-oxo-1,4-dihydroquinazolin-2-yl)-phenoxy)-N-morpholinoacetamide [Compound 42a]” as the compound, how does the IC50 [1] read?
Answer: 14.7 ± 1.55 µM

Question: What about the IC50 [2] of the same compound?
Answer: 12.5 ± 0.87 µM

Question: For “2-(4-(5,7-Dimethoxy-4-oxo-1,4-dihydroquinazolin-2-yl)-phenoxy)-N-(4-methylpiperazin-1-yl)acetamide [Compound 42g]”, which IC50 [1] is on record?
Answer: 12.8 ± 1.72 µM

Question: And the IC50 [2]?
Answer: 13.7 ± 0.23 µM

Question: For “N-(3-Chloro-4-(4-methylpiperazin-1-yl)phenyl)-2-(4-(7-methyl-4-oxo-1,4-dihydroquinazolin-2-yl)phenoxy)acetamide [Compound 44n]”, which IC50 [1] is on record?
Answer: 17.4 ± 0.56 µM

Question: What about the IC50 [2] of the same compound?
Answer: 16.2 ± 1.83 µM

Question: With `COc1cc(OC)c2c(=O)[nH]c(-c3ccc(OCC(=O)O)cc3)nc2c1` [Compound 26, 2-(4-(5,7-Dimethoxy-4-oxo-1,4-dihydroquinazolin-2-yl)-phenoxy)acetic Acid] as the compound, how does the “inhibitory ratio on BRD4” value ([4]; 10 μM) read?
Answer: 63%

Question: And the “inhibitory ratio on CK2” value [5]?
Answer: 45%

Question: For `Cc1sc2c(c1C)C(c1ccc(Cl)cc1)=N[C@@H](CC(=O)OC(C)(C)C)c1nnc(C)n1-2` [Compound 1, JQ1, reference compound], which inhibition at 1 µM ([4]; read-out: Kinase inhibitory activity (1 μM, %) BRD4) is on record?
Answer: 97 ± 1.32%

Question: With “6-Methoxy-2-(2-methoxyphenyl)-4H-chromen-4-one [Compound 33c]” as the compound, how does the IC50 [1] read?
Answer: > 50 µM

Question: And the IC50 [2]?
Answer: > 50 µM

Question: For “2-(4-(5,7-Dimethoxy-4-oxo-1,4-dihydroquinazolin-2-yl)-2,6-dimethylphenoxy)-N-morpholinoacetamide [Compound 42b]”, which IC50 [1] is on record?
Answer: 20.6 ± 0.62 µM

Question: And the IC50 [2]?
Answer: 18.5 ± 1.23 µM

Question: Which results are given for “N-(3-Chloro-4-(4-methylpiperazin-1-yl)phenyl)-2-(4-(6-fluoro-4-oxo-1,4-dihydroquinazolin-2-yl)phenoxy)acetamide [Compound 44j]”?
Answer: IC50 [1]: 6.94 ± 0.68 µM; IC50 [2]: 7.51 ± 1.13 µM

Question: Which results are given for `COc1cc(OC)c2c(=O)[nH]c(-c3ccc(OCC(=O)Nc4ccc(N5CCN(C)CC5)c(Cl)c4)cc3)nc2c1` [Compound 44e, N-(3-Chloro-4-(4-methylpiperazin-1-yl)phenyl)-2-(4-(5,7-dimethoxy-4-oxo-1,4-dihydroquinazolin-2-yl)phenoxy)acetamide]?
Answer: CL ([6]; iv 1 mg/kg): 57.4 ± 1.3 (mL/min)/kg; time at which the highest concentration was observed ([6]; po 10 mg/kg): 5.14 ± 0.71 h; tumor growth inhibition (in words) [7, 22]: dose-dependent tumor growth inhibition; Ki-67 immunohistochemical staining in tumor tissue ([7]; 25 or 50 mg/kg): significantly inhibit the proliferation; expression of c-Myc and p-AKT^S129 in xenograft tumor tissues (IHC) ([7]; 25 or 50 mg/kg, compared with control group): significantly reduced; HE staining of heart, liver, spleen, lung, and kidney tissues ([7]; after 19 days of treatment): No significant morphologic or structural changes; mouse body weight and death [7, 23]: No significant changes in mouse body weight and death; toxicity to the normal breast cell line MCF-10A [8]: did not have obvious toxicity; thermal stability of BRD4 (CETSA) [9]: improved the thermal stability; thermal stability of CK2α (CETSA) [10]: improved the thermal stability; level of p-BRD4^S492 [11]: dose-dependently downregulated; level of p-BRD4^S492 [12]: dose-dependently downregulated; colony formation [13]: dose-dependently suppressed growth and reduced the number of colonies; colony formation [14]: dose-dependently suppressed growth and reduced the number of colonies; apoptosis (Annexin-V/PI) [15]: dose-dependently induced apoptosis; apoptosis (Annexin-V/PI) [16]: dose-dependently induced apoptosis; autophagy induction [17]: significantly induced autophagy; autophagy induction [18]: significantly induced autophagy; IC50 [19]: > 10 µM; tumor growth inhibition (in words) [20, 22]: dose-dependent tumor growth inhibition; HE staining of heart, liver, spleen, lung, and kidney tissues ([20]; after 19 days of treatment): No significant morphologic or structural changes; mouse body weight and death [20, 23]: No significant changes in mouse body weight and death; anticancer activity against compound 1-resistant cells [21]: able to alleviate drug resistance of 1
